Data reported in PubChem BioAssay AID742 (SRMLSC, 2007).
Activity calls are given as the source filed them. The rule behind the calls is not given here.

Assays:
[1] = inhibitors of Her2 kinase expression, dose response, cell-based, AlphaScreen, CellTiter-Glo viability (AID 742); conditions: human cells, Her2 expression AlphaScreen; CTG viability; at 9.62 µM (top of the series)
[2] = system: human cells, Her2 expression AlphaScreen; CTG viability; experiment: as above; conditions: viability, CellTiter-Glo

SMILES | Her2 inhibition [1] | EC50 [2]
CCn1c(=N)n(CC(=O)C23CC4CC(CC(C4)C2)C3)c2ccccc21 | -15.5% (inactive) | > 9.62 µM
CCN(CC)C(=O)c1csc(Nc2ccc(C)cc2)n1 | -12.9% (inactive) | > 9.62 µM
Cc1cc2nnc(SC(C)C#N)n2c2ccccc12 (centres undefined) | -10.1% (inactive) | > 9.62 µM
CC(=O)Nc1cccc(NC(=O)c2c(-c3ccccc3Cl)noc2C)c1 | -14.7% (inactive) | > 9.62 µM
Oc1ccc(N=Cc2ccc(-c3cccs3)s2)cc1 | 37.6% (inactive) | < 0.024 µM
Cc1cccc(C)c1NC1=NCCCS1 | 6.69% (inactive) | > 9.62 µM
CN1CC2=Cc3ccccc3OC23Oc2ccccc2C=C3C1 | -10.3% (inactive) | > 9.62 µM
N=C(N)c1c(O)n(C2CCCCC2)c(=O)n(C2CCCCC2)c1=O | -21.5% (inactive) | > 9.62 µM
N#CCCS(=O)(=O)c1nnnn1-c1ccccc1 | 3.51% (inactive) | > 9.62 µM
Cc1ccc(C2CC(=O)N3CN(c4ccc(Br)cc4)CSC3=C2C#N)o1 (centres undefined) | 16% (inactive) | > 9.62 µM
COC(=O)CSc1cc(SCC(=O)OC)c(C#N)c(SCC(=O)OC)c1 | 6.74% (inactive) | > 9.62 µM
CC1(C)CC(=O)C2=C(C1)OC(=O)C2(NC(=O)c1cccs1)C(F)(F)F (centres undefined) | -18.5% (inactive) | > 9.62 µM
CC(C)n1c(SCc2ccc(Cl)cc2)nc2c1c(=O)[nH]c(=O)n2C | -14.2% (inactive) | > 9.62 µM
CC1CN(c2oc(COc3ccc(Cl)cc3Cl)nc2C#N)CC(C)O1 (centres undefined) | -17.3% (inactive) | > 9.62 µM
CCCn1c(Nc2nc3ccccc3n2C)nc2ccccc21 | -10.1% (inactive) | > 9.62 µM
Cc1c(-c2cccs2)[n+](=O)c2c(n1[O-])CCCC2 | -49% (inactive) | > 9.62 µM
C/C(=N\O)C(=O)C(CN1CCCCC1)CN1CCCCC1 | 15.2% (inactive) | > 9.62 µM
CSc1ccc2c(c1)N(CCC1CCCCN1C)c1ccccc1S2 (centres undefined) | -45.6% (inactive) | > 9.62 µM
COc1ccc(-c2nc(C(N)=O)c3[nH]c(=O)n(-c4cccc(Cl)c4)c3n2)cc1OC | -17.3% (inactive) | > 9.62 µM

SMILES | Her2 inhibition [1] | EC50 [2]
CCOC(=O)C(C(C)=O)c1c(Br)c(O)c(O)c2c(C(=O)c3ccc(C)cc3)coc12 (centres undefined) | 46.1% (inactive) | > 9.62 µM
CC(=O)Nc1cc(OC(C)=O)c2nonc2c1OC(C)=O | 22.3% (inactive) | > 9.62 µM
CCCCC(C(=O)O)C(C)CC(=O)Nc1cccc(C(=O)O)c1 (centres undefined) | -10.2% (inactive) | > 9.62 µM
Clc1cccc(-c2nnc(-c3ccccc3)o2)c1 | 34.8% (inactive) | < 0.024 µM
CCCCCn1c(CN2CCCCC2CC)nc2c1c(=O)n(C)c(=O)n2C (centres undefined) | -28.1% (inactive) | > 9.62 µM
COCCCN1C(=O)C(O)=C(C(C)=O)C1c1cccc(F)c1 (centres undefined) | -2.16% (inactive) | > 9.62 µM
Cc1ccc(C(c2sc3nc(C)nn3c2O)N2CCN(c3ccccc3F)CC2)cc1 (centres undefined) | -4.31% (inactive) | > 9.62 µM
CCn1c(SCC(=O)C(C)(C)C)nnc1-c1cnccn1 | 2.82% (inactive) | > 9.62 µM
CN1CCCN(C(c2ccccc2)c2ccc(Cl)cc2)CC1 (centres undefined) | -8.42% (inactive) | > 9.62 µM
C=CCn1c(=O)c2ccccc2n2c(SCc3cc(=O)n4ccsc4n3)nnc12 | -18.6% (inactive) | > 9.62 µM
OC(CCN1CCCC1)(c1ccccc1)C1CCCCC1 (centres undefined) | -24.9% (inactive) | > 9.62 µM
N#C/C(C(N)=O)=c1/ccc2c(c1)N1C3=C(CCCC3)CC3CCCCC31N=2 (centres undefined) | 4.75% (inactive) | > 9.62 µM
c1cnc(-c2nnc3n2CCCCC3)cn1 | 5.42% (inactive) | > 9.62 µM
C[C@@]1(CO)[C@H](O)CC[C@@]2(C)[C@H]1CC[C@H]1C[C@@H]3C[C@@]12CC[C@]3(O)CO | 1.16% (inactive) | > 9.62 µM
CCOC(=O)c1ccc(N=c2sc(C(=O)OC)cc(=O)n2Cc2ccco2)cc1 | -0.92% (inactive) | > 9.62 µM
CCc1nc(N)c(C#N)c(-c2cccnc2)c1C | 2.53% (inactive) | > 9.62 µM
O=C(NCc1ccco1)C(Cc1ccccc1)N1C(=O)c2ccccc2C1=O (centres undefined) | -6.2% (inactive) | > 9.62 µM
CCCCCCOC(=O)C(C#N)c1nc2ccccc2nc1N1CCN(C)CC1 (centres undefined) | -32.5% (inactive) | > 9.62 µM
Nc1ccc2ncccc2c1N | 1.77% (inactive) | > 9.62 µM

SMILES | Her2 inhibition [1] | EC50 [2]
CCn1c2ccccc2c2cc(C3C(C#N)=C(N)Oc4n[nH]c(COC)c43)ccc21 (centres undefined) | 29.6% (inactive) | > 9.62 µM
CC(C)N(Cc1nc(-c2ccccc2)no1)C(=O)CN1C(=O)c2ccccc2C1=O | -1.52% (inactive) | > 9.62 µM
Oc1ccc2ccccc2c1C=NCc1cn2ccsc2n1 | -11.2% (inactive) | > 9.62 µM
CCOc1ccccc1NC(=O)Cn1nnc(-c2ccc(OCC)c(OCC)c2)n1 | -13.9% (inactive) | > 9.62 µM
Cn1nnnc1Sc1ncnc2scc(-c3ccccc3)c12 | 41.9% (inactive) | > 9.62 µM
COCc1cc(C)nc(Nc2ccc(C)c(C)c2)c1C#N | 20.5% (inactive) | > 9.62 µM
O=C(NCCCc1ccccc1)c1ccncc1 | -8.4% (inactive) | > 9.62 µM
C=CCn1c(SCc2nc3ccccc3c(=O)[nH]2)nnc1-c1cc2cc(Cl)ccc2o1 | 5.79% (inactive) | > 9.62 µM
CCOC(=O)c1c(-c2cccs2)csc1NC(=O)c1ccco1 | 17.4% (inactive) | > 9.62 µM
CN(C)CCCN1c2ccccc2Sc2ccc(C(F)(F)F)cc21 | 0.74% (inactive) | > 9.62 µM
COC(=O)Nc1ccc(S(=O)(=O)N(CCO)CC(F)(F)C(F)F)cc1 | -11.6% (inactive) | > 9.62 µM
Cc1nc2cc(S(=O)(=O)C(F)(F)F)ccc2s1 | -23.9% (inactive) | > 9.62 µM
CCN(CC)c1ccc2c(c1)oc(=O)c1c(Cl)cc(=O)oc12 | -20.7% (inactive) | > 9.62 µM
Cn1c(SC2=CS(=O)(=O)c3ccccc32)nc2ccccc21 | 44.8% (inactive) | > 9.62 µM
CCOc1ccc(-c2[nH]ncc2Oc2ccccc2OCC)c(O)c1 | 1.97% (inactive) | > 9.62 µM
CCOC(=O)C(NC(C)=O)(N1CCc2ccccc2C1)C(F)(F)F (centres undefined) | -13.1% (inactive) | > 9.62 µM
Nc1c(S(=O)(=O)c2cccc(Cl)c2)c2nc3ccccc3nc2n1/N=C/c1ccc(O)c(O)c1 | 11.2% (inactive) | > 9.62 µM
O=C1c2cccc3cccc(c23)C(=O)N1c1nncs1 | -25.5% (inactive) | > 9.62 µM
CC1(C)CCCC2=C1CC1C(=O)N(Cc3cccnc3)C(=O)C1C2 (centres undefined) | -13.3% (inactive) | > 9.62 µM
